Measurements from BindingDB's records for doi:10.1016/s0960-894x(01)00497-8 (Universidad De Sevilla, 2001).
Structures can show the parent of a compound that is named as a salt.

Columns and labels:
[1] = Inhibitory concentration against alpha-L-Fucosidase of human placenta
[2] = Inhibitory activity against alpha-L-Fucosidase of bovine epididymis expressed as Ki
[3] = Inhibitory concentration against alpha-L-Fucosidase of bovine epididymis
[4] = Inhibitory activity against alpha-L-fucosidase of bovine epididymis expressed as Ki
[5] = molecular target: alpha-L-fucosidase (Bacillus sp. K40T); test: Inhibitory activity against alpha-L-fucosidase of bacillus species (K40T) expressed as Ki
[6] = In vitro inhibition of alpha-L-fucosidase isolated from bovine kidney.

Structure (SMILES)	Ki [1] [µM]	further results
C[C@H]1N[C@H](CO)[C@H](O)[C@@H]1O	9	–
CC1NCC(O)C1O (stereo unspecified) [2-Methyl-pyrrolidine-3,4-diol]	2	–
COC(=O)c1cc(C2NCC(O)C2O)oc1C (stereo unspecified) [5-(3,4-Dihydroxy-pyrrolidin-2-yl)-2-methyl-furan-3-carboxylic acid methyl ester]	–	Ki [2]: 6.5 µM; IC50 [3]: 100 µM
CC1CN[C@@H](N)[C@H](O)C1O (stereo partly drawn) [(2R,3S)-2-Amino-5-methyl-piperidine-3,4-diol]	0.016	–
CC1N=C(NN)[C@@H](O)[C@H](O)C1O (stereo partly drawn) [(4R,5R)-6-Hydrazino-2-methyl-2,3,4,5-tetrahydro-pyridine-3,4,5-triol]	0.82	–
CCCCNC1N[C@@H](CO)C(O)[C@@H](O)[C@@H](CO)N1 (stereo partly drawn) [(6S,7R)-2-Butylamino-4,7-bis-hydroxymethyl-[1,3]diazepane-5,6-diol; trifluoroacetate]	2.8	–
OC1CN(Cc2ccccc2)C[C@@H](O)C(O)C1O (stereo partly drawn) [(R)-1-Benzyl-azepane-3,4,5,6-tetraol]	–	Ki [4]: 23.4 µM
C=CCOC1OC(CO)C(O)C(O)[C@H]1OC1SC(C)C(O)[C@@H](O)C1O (stereo partly drawn) [(R)-2-((R)-2-Allyloxy-4,5-dihydroxy-6-hydroxymethyl-tetrahydro-pyran-3-yloxy)-6-methyl-tetrahydro-thiopyran-3,4,5-triol]	–	Ki [5]: 0.21 µM; Ki [6]: 30 µM
CC1C(N)C(O)[C@H](O)C1O (stereo partly drawn) [(R)-4-Amino-5-methyl-cyclopentane-1,2,3-triol]	15	–

Further lines, with some results ahead:

Ki [1] [µM]	Structure (SMILES)	further results
1.4	C[C@@H]1N[C@@H](CO)[C@H](O)[C@@H]1O	–
0.01	CC1NC(S(=O)(=O)O)C(O)C1O (stereo unspecified) [3,4-Dihydroxy-5-methyl-pyrrolidine-2-sulfonic acid]	–
3.3	CC1SC(Sc2ccc([N+](=O)[O-])cc2)C(O)[C@H](O)C1O (stereo partly drawn) [(R)-2-Methyl-6-(4-nitro-phenylsulfanyl)-tetrahydro-thiopyran-3,4,5-triol]	–
0.68	CC1C(NCc2ccccc2)C(O)[C@H](O)C1O (stereo partly drawn) [(R)-4-Benzylamino-5-methyl-cyclopentane-1,2,3-triol]	–
4	CC(=O)NCC1NCC(O)[C@@H](O)[C@@H]1O (stereo partly drawn) [N-((3R,4R)-3,4,5-Trihydroxy-piperidin-2-ylmethyl)-acetamide]	–
